Reference: ChEMBL document CHEMBL4828724 (Eur J Med Chem, 2021)

Experiments:
[1] = Metabolic stability in mouse liver microsomes assessed as intrinsic clearance at 1 uM in the presence of NADPH measured for 60 mins by LC-MS/MS analysis; assay type: ADME, Microsome; details: read-out: CLH
[2] = molecular target: T1, Synaptic vesicular amine transporter (Rattus norvegicus, UniProt Q01827); assay: Inhibition of [3H]DTBZ binding to VMAT2 in rat brain incubated for 30 mins by liquid scintillation spectrometry analysis; assay type: tissue-based
[3] = Metabolic stability in human liver microsomes assessed as parent compound remaining at 1 uM in the presence of NADPH measured after 60 mins by LC-MS/MS analysis; assay type: ADME, Microsome; details: read-out: Stability
[4] = Metabolic stability in mouse liver microsomes assessed as parent compound remaining at 1 uM in the presence of NADPH measured after 60 mins by LC-MS/MS analysis; assay type: ADME, Microsome; details: liver microsomes, read-out: Stability
[5] = Metabolic stability in monkey liver microsomes assessed as parent compound remaining at 1 uM in the presence of NADPH measured after 60 mins by LC-MS/MS analysis; assay type: ADME, Macaca mulatta, Microsome; details: rhesus monkey, liver microsomes, read-out: Stability
[6] = Metabolic stability in monkey liver microsomes assessed as intrinsic clearance at 1 uM in the presence of NADPH measured for 60 mins by LC-MS/MS analysis; assay type: ADME, Macaca mulatta, Microsome; details: rhesus monkey, read-out: CLH
[7] = Metabolic stability in human liver microsomes assessed as intrinsic clearance at 1 uM in the presence of NADPH measured for 60 mins by LC-MS/MS analysis; assay type: ADME, Microsome; details: read-out: CLH
[8] = Metabolic stability in human liver microsomes assessed as half life at 1 uM in the presence of NADPH measured for 60 mins by LC-MS/MS analysis; assay type: ADME, Microsome
[9] = Metabolic stability in monkey liver microsomes assessed as half life at 1 uM in the presence of NADPH measured for 60 mins by LC-MS/MS analysis; assay type: ADME, Macaca mulatta, Microsome; details: rhesus monkey
[10] = Metabolic stability in mouse liver microsomes assessed as half life at 1 uM in the presence of NADPH measured for 60 mins by LC-MS/MS analysis; assay type: ADME, Microsome; details: liver microsomes
[11] = molecular target: Synaptic vesicular amine transporter (Rattus norvegicus) (UniProt Q01827); assay: Inhibition of [3H]DA uptake at VMAT2 in rat striatal synaptosome at 0.1 uM incubated for 10 mins followed by [3H]DA addition and measured after 20 mins by TopCount scintillation counting method relative to control; assay type: subcellular; details: Striatum, time 30.0 min
[12] = molecular target: T1, Synaptic vesicular amine transporter; assay: Inhibition of [3H]DA uptake at VMAT2 in rat striatal synaptosome incubated for 10 mins followed by [3H]DA addition and measured after 20 mins by TopCount scintillation counting method; assay type: subcellular, Striatum
[13] = molecular target: Synaptic vesicular amine transporter (Rattus norvegicus) (UniProt Q01827); assay: Inhibition of [3H]DA uptake at VMAT2 in rat striatal synaptosome at 1 uM incubated for 10 mins followed by [3H]DA addition and measured after 20 mins by TopCount scintillation counting method relative to control; assay type: subcellular; details: Striatum, time 30.0 min
Cytochrome P450 2C19 = Cytochrome P450 2C19 (Homo sapiens, UniProt P33261); assay: Inhibition of CYP2C19 (unknown origin); assay type: ADME
[14] = Apparent volume of distribution during terminal phase in Sprague-Dawley rat at 10 umol/kg, ig administered as single dose measured after 12 hrs by LC-MS/MS analysis; assay type: ADME; details: in vivo, po, dose 10 µmol/kg, read-out: Vz/F
Cytochrome P450 2C9 = Cytochrome P450 2C9 (Homo sapiens, UniProt P11712); assay: Inhibition of CYP2C9 (unknown origin); assay type: ADME
[15] = Cmax in Sprague-Dawley rat at 10 umol/kg, ig administered as single dose measured for 12 hrs by LC-MS/MS analysis; assay type: ADME; set-up: route […], time 12 hrs, dose 10 µmol/kg; details: in vivo, po
Cytochrome P450 2D6 = Cytochrome P450 2D6 (Homo sapiens, UniProt P10635); assay: Inhibition of CYP2D6 (unknown origin); assay type: ADME
Rattus norvegicus [16] = assay: Reduction in spontaneous locomotor activity in Sprague-Dawley rat at 3 umol/kg, po measured for 3 hrs; assay type: functional
[17] = Ratio of drug level in Sprague-Dawley rat brain to blood at 5 umol/kg, ig measured after 6 hrs by LC-MS/MS analysis; assay type: ADME, tissue-based; details: po, dose 5 µmol/kg
[18] = Drug uptake in Sprague-Dawley rat brain at 5 umol/kg, ig measured after 2 hrs by LC-MS/MS analysis; assay type: ADME, tissue-based; details: in vivo, po, dose 5 µmol/kg
[19] = Clearance in Sprague-Dawley rat at 10 umol/kg, ig administered as single dose measured for 12 hrs by LC-MS/MS analysis; assay type: ADME; details: in vivo, po, dose 10 µmol/kg
[20] = molecular target: Voltage-gated inwardly rectifying potassium channel KCNH2 (Homo sapiens, UniProt Q12809); assay: Inhibition of human ERG
Cytochrome P450 3A4 = Cytochrome P450 3A4 (Homo sapiens, UniProt P08684); assay: Inhibition of CYP3A4 (unknown origin); assay type: ADME
[21] = Tmax in Sprague-Dawley rat at 10 umol/kg, ig administered as single dose measured for 12 hrs by LC-MS/MS analysis; assay type: ADME; details: in vivo, po, dose 10 µmol/kg
Cytochrome P450 2B6 = molecular target: T2, Cytochrome P450 2B6 (Homo sapiens, UniProt P20813); assay: Inhibition of CYP2B6 (unknown origin); assay type: ADME
T2 sequence (P20813 whole entry): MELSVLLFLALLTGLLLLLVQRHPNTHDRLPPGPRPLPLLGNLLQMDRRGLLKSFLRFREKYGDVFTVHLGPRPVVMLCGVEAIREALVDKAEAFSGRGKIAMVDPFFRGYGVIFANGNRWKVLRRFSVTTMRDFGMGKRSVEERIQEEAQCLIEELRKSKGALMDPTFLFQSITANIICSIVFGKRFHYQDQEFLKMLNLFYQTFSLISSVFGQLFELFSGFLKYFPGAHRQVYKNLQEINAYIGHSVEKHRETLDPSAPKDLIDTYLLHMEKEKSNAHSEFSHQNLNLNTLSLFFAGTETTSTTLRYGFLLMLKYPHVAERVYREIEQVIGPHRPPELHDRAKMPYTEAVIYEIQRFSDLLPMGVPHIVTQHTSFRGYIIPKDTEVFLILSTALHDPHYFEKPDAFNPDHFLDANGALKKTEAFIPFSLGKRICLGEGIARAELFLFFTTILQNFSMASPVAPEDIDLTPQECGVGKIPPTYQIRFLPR

[22] = Half life in Sprague-Dawley rat at 10 umol/kg, ig administered as single dose measured for 12 hrs by LC-MS/MS analysis; assay type: ADME; details: in vivo, po, dose 10 µmol/kg
[23] = AUC (0 to infinity) in Sprague-Dawley rat at 10 umol/kg, ig administered as single dose by LC-MS/MS analysis; assay type: ADME; set-up: time infinity, route […], dose 10 µmol/kg; details: in vivo, po
Rattus norvegicus [24] = assay: Reduction in spontaneous locomotor activity in Sprague-Dawley rat at 15 umol/kg, po measured for 3 hrs; assay type: functional

T1 sequence (Q01827 whole entry): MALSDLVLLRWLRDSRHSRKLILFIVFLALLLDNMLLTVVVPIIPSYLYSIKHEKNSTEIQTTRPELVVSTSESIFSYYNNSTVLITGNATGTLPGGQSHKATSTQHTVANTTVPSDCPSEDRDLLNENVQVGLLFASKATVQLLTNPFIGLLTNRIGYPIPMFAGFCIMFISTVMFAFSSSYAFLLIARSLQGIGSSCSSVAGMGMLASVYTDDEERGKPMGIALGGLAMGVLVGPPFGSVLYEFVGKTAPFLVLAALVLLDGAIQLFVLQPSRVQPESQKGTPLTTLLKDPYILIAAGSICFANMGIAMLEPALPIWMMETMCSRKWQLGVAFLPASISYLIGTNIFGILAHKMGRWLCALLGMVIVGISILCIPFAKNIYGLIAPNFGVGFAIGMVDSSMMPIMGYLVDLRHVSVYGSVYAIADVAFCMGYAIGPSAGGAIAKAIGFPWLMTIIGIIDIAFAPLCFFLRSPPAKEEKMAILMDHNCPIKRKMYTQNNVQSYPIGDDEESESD
Sequence of Synaptic vesicular amine transporter (Rattus norvegicus) (Q01827 whole entry): as above
Sequence of Voltage-gated inwardly rectifying potassium channel KCNH2 (Q12809 whole entry): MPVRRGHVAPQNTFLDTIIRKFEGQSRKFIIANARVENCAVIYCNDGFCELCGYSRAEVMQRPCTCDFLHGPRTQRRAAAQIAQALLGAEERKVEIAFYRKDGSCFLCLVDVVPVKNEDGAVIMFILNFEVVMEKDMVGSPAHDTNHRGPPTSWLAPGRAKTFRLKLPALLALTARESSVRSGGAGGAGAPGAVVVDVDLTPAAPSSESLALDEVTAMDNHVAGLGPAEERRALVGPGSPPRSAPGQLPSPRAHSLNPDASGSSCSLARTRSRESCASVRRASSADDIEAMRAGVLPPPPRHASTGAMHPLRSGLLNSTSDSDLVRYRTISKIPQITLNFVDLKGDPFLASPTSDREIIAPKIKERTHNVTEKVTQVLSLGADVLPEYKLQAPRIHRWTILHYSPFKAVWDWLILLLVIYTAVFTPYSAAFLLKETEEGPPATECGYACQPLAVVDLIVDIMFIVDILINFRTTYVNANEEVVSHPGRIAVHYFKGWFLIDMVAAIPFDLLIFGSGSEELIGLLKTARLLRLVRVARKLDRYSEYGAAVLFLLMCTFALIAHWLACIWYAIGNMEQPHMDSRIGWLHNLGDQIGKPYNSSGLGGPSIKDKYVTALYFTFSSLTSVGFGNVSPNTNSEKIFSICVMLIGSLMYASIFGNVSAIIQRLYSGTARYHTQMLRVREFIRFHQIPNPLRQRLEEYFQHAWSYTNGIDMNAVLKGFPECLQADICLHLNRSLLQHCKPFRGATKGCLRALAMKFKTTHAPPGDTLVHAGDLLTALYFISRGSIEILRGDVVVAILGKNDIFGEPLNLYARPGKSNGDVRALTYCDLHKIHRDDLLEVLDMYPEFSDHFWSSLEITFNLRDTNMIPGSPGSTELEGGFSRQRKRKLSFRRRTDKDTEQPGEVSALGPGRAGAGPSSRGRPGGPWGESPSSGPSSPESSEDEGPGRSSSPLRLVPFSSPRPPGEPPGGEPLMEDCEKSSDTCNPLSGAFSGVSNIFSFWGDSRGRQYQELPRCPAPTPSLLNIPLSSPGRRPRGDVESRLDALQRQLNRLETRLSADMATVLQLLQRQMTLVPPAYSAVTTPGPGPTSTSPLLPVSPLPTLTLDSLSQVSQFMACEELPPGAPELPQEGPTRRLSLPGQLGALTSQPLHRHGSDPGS
Sequence of Cytochrome P450 3A4 (P08684 whole entry): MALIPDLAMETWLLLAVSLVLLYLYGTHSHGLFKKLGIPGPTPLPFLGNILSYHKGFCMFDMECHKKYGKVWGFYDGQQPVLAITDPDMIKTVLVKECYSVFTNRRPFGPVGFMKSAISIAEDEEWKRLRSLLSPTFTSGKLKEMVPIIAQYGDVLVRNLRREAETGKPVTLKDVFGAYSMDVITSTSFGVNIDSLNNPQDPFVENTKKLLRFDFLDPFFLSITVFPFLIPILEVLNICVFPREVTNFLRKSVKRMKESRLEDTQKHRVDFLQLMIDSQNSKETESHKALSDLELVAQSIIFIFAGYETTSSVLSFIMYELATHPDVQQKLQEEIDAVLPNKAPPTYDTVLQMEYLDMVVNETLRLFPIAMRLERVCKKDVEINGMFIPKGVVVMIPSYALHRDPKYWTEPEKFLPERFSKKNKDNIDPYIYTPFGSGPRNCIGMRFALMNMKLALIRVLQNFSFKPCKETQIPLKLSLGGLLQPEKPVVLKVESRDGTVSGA
Sequence of Cytochrome P450 2C9 (P11712 whole entry): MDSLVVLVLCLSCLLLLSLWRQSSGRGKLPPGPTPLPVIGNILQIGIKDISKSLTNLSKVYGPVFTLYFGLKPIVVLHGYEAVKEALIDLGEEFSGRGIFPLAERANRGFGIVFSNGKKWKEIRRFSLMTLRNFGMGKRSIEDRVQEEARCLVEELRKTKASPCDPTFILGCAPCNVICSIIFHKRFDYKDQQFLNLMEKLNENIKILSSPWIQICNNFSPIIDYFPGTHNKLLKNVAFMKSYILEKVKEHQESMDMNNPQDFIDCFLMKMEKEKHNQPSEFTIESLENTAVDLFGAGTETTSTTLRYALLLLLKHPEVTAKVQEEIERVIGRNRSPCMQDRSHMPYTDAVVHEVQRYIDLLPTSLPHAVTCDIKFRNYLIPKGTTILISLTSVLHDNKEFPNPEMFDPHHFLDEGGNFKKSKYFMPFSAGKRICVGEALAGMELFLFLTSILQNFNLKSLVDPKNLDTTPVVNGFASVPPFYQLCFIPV
Sequence of Cytochrome P450 2D6 (P10635 whole entry): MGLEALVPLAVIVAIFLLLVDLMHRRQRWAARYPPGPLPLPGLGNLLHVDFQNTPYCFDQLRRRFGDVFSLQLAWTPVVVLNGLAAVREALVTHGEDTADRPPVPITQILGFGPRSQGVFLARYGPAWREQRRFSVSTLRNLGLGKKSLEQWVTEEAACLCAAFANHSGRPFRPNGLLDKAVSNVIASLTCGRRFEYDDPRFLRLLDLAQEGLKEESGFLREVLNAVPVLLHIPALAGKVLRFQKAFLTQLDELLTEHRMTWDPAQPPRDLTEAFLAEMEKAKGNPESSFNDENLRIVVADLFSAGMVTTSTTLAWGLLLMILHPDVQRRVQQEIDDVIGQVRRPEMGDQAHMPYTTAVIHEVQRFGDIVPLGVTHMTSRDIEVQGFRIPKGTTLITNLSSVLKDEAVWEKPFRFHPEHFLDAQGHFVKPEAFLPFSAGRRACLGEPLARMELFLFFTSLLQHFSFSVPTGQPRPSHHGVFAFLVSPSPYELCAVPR
Sequence of Cytochrome P450 2C19 (P33261 whole entry): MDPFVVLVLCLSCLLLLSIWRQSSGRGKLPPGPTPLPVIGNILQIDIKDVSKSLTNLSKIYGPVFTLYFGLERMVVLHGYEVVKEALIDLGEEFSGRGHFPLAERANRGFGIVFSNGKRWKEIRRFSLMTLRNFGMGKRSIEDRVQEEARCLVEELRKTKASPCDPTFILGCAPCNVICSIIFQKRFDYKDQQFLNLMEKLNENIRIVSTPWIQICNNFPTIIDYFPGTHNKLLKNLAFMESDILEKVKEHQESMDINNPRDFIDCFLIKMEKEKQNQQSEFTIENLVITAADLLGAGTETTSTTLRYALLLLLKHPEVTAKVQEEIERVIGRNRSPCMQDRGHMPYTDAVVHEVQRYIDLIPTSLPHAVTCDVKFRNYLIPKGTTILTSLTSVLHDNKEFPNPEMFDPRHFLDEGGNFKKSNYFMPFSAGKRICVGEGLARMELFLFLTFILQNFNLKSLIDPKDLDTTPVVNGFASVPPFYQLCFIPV

CCCOc1cc2c(cc1OCC)C1CC(O)C(CC(C)C)CN1CC2 (stereo not drawn)
CLint scaled at 1 µM [1]: 535 mL/min/kg | IC50 [2]: 12.5 nM | remaining at 1 h, 1 µM [3]: 47.3% | remaining at 1 h, 1 µM [4]: 1.3% | remaining at 1 h, 1 µM [5]: 6.6% | CLint scaled at 1 µM [6]: 120 mL/min/kg | CLint scaled at 1 µM [7]: 22.5 mL/min/kg | half-life at 1 µM [8]: 55.4 min | half-life at 1 µM [9]: 15.6 min | half-life at 1 µM [10]: 10.3 min

CCOc1cc2c(cc1OC)CCN1CC(CC(C)C)C(O)CC21 (stereo not drawn)
IC50 [2]: > 500 nM

CCCOc1cc2c(cc1OC)C1CC(O)C(CC(C)C)CN1CC2 (stereo not drawn)
inhibition [11]: 91.2% | IC50 [12]: 35.2 nM | inhibition [13]: 99.3%

CC(C)CC1CN2CCc3cc(OCC4CC4)c(OCC4CC4)cc3C2CC1O (stereo not drawn)
IC50 [2]: 210 nM

COCCCOc1cc2c(cc1OC)C1CC(O)C(CC(C)C)CN1CC2 (stereo not drawn)
inhibition [11]: 84.9% | IC50 [12]: 64.9 nM | inhibition [13]: 92.1%

COc1cc2c(cc1OCC(F)(F)F)CCN1CC(CC(C)C)C(O)CC21 (stereo not drawn)
IC50 (Cytochrome P450 2C19): > 100000 nM | CLint scaled at 1 µM [1]: 238 mL/min/kg | Vd/F [14]: 10.8 L/kg | IC50 (Cytochrome P450 2C9): > 100000 nM | inhibition [11]: 99.9% | Cmax [15]: 1400 nM | remaining at 1 h, 1 µM [3]: 77.4% | IC50 (Cytochrome P450 2D6): > 100000 nM | inhibition in vivo at 3 µmol/kg (Rattus norvegicus [16]): 64.7% | Kp at 6 h [17]: 2.21 | remaining at 1 h, 1 µM [4]: 14.2% | Drug uptake [18]: 458.2 nmol/kg | CL/F [19]: 53.3 mL/min/kg | IC50 [20]: 6510 nM | IC50 (Cytochrome P450 3A4): > 100000 nM | remaining at 1 h, 1 µM [5]: 48.1% | CLint scaled at 1 µM [6]: 31.9 mL/min/kg | Tmax [21]: 45 min | CLint scaled at 1 µM [7]: 8.6 mL/min/kg | IC50 (Cytochrome P450 2B6): > 100000 nM | half-life [22]: 137 min | AUC(0-inf) [23]: 3.47 µM·h | inhibition [13]: 99.9% | inhibition in vivo at 15 µmol/kg (Rattus norvegicus [24]): 93.7%

COc1cc2c(cc1OC)C1CC(O)(CO)C(CC(C)C)CN1CC2 (stereo not drawn)
CLint scaled at 1 µM [1]: 143 mL/min/kg | IC50 [2]: 8.02 nM | inhibition [11]: 99.1% | IC50 [12]: 5.14 nM | CLint scaled at 1 µM [7]: 109 mL/min/kg | inhibition [13]: 99.7%

CCOc1cc2c(cc1OCCCF)CCN1CC(CC(C)C)C(O)CC21 (stereo not drawn)
IC50 [2]: 56.6 nM

CCOc1cc2c(cc1OCC1CC1)CCN1CC(CC(C)C)C(O)CC21 (stereo not drawn)
IC50 [2]: 21.4 nM

COc1cc2c(cc1OC)C1CC(=O)C(CC(C)C)CN1CC2 (stereo not drawn) [TETRABENAZINE]
CLint scaled at 1 µM [1]: 254 mL/min/kg | remaining at 1 h, 1 µM [3]: 30.8% | remaining at 1 h, 1 µM [4]: 13.4% | remaining at 1 h, 1 µM [5]: 10.5% | CLint scaled at 1 µM [6]: 149 mL/min/kg | CLint scaled at 1 µM [7]: 76 mL/min/kg | half-life at 1 µM [8]: 32.8 min | half-life at 1 µM [9]: 12.6 min | half-life at 1 µM [10]: 21.6 min

COc1cc2c(cc1OC)[C@H]1C[C@@H](OC(=O)[C@@H](N)C(C)C)[C@H](CC(C)C)CN1CC2 [VALBENAZINE]
IC50 [20]: 1700 nM

COc1cc2c(cc1OC)C1CC(C)(O)C(CC(C)C)CN1CC2 (stereo not drawn)
IC50 [2]: > 500 nM | inhibition [11]: 53.1% | inhibition [13]: 96.1%
